Test results as given in publication PMC5839409, “Targeting intracellular B2 receptors using novel cell-penetrating antagonists to arrest growth and induce apoptosis in human triple-negative breast cancer” (Oncotarget, 2018).

Columns and labels:
MDA-MB-231 cells [1] = test: Drug-drug synergy experiments (MTT, combination index); format: cell-based, human; details: IC25 ratios, 72h, CalcuSyn
Procedure: Interactions (synergy, additive, antagonistic activities) between CP-B2RAs (FR173657 and NG68) and chemotherapeutic drugs (doxorubicin and paclitaxel) were evaluated using MTT standard assays. Twenty-four hours after seeding, cells were treated with CP-B2RAs, the other testing drug, or in combination. For combination testing, CP-B2RAs or the other testing drugs were added to plate in triplicate wells in ratios of IC25 (IC25A: IC25B), and cells are incubated in drug-treated medium for 72h and cell viability determined by MTT. Synergy was determined by calculating combination index (CI) value with the formula CI = (CA,X / ICx,A) + (CB,X / ICx,B), where CA,X and CB,X are concentrations of drug A and drug B used in combination to achieve x% drug effect. ICx,A and ICx,B are concentrations for single agents to achieve the same effect. A CI of less than, equal to, and more than 1 indicates synergy, additivity, and antagonism, respectively.

human B2R = target: T1, human B2R (Homo sapiens, UniProt P30411); details: living adherent HEK-293T cells transiently transfected with hB2R; means ± s.e.m.; ref [34]; read-out: Binding hB2R-HEK293T IC50; cited from earlier work
T1 construct: expressed in transfected cells; host or cells: HEK-293T
T1 sequence (P30411 1-391): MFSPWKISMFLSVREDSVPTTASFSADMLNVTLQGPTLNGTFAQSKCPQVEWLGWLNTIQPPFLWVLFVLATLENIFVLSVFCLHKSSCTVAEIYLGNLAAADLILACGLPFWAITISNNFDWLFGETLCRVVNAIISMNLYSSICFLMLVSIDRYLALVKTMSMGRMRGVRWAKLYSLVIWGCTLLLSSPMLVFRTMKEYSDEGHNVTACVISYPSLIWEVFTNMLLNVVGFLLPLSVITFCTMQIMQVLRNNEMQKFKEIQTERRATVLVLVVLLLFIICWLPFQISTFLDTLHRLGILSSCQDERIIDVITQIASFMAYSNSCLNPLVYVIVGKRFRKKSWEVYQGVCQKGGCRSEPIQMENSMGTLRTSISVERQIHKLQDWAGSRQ

MDA-MB-231 cells [2] = test: Anchorage-dependent clonogenic assay; format: cell-based, human; details: 1 to 100 µM (FR173657 up to 25 µM), 10-14 days
Procedure: MDA-MB-231 cells were plated at 200 cells/well in a six-well dish in 2 ml DMEM medium containing 10% FBS. […] After 10 to 14 days, colonies were fixed and stained with 0.5% methylene blue in 50% ethanol. Excess of staining solution was removed carefully with tap water and the plates were dried overnight. Colony counting and densitometric analyses (to measure total colony numbers and surface areas) were performed using the Image Pro Plus 5.1 software.

MDA-MB-231 cells [3] = test: Western blot of cell cycle, apoptosis and p38 proteins; format: cell-based, human
Procedure: For western blot analysis, appropriate amount of cell lysates or membrane and nuclear fractions (25–50 µg protein) were denatured, resolved on 9–12% SDS–PAGE and electrotransferred onto PVDF membranes. Blots were blocked using 5% nonfat dry milk and probed using appropriate primary antibodies in blocking buffer overnight at 4°C.

MDA-MB-231 cells [4] = test: MTT cytotoxicity (cell viability) assay; format: cell-based, human; details: MTT assay after 72h drug exposure; means ± s.e.m., n = 6 to 8; read-out: IC50 values (cytocidal activity)
Procedure: (§1) Cell proliferation assay on MDA-MB-231 cells was determined with colorimetric MTT as we described. Briefly, cells were seeded in a 96 wells plate at 2,000 cells/well in DMEM media supplemented with 10% FBS for 24h at 37°C. Cells were then incubated with and without the B2RAs at the indicated concentrations for the time shown. At the end of treatment period, MTT (0.25 mg/ml) was added to the cells and incubated for 1h30 at 37°C. Thereafter, the cell medium was removed, the formazan product solubilized in acidified isopropanol (100 µl of 1N HCl/anhydrous isopropanol 1:25) and the absorbance determined at 570 nm with an ELISA microplate reader (Spectra Max Plus, Molecular Devices, Sunnyvale, CA). For assessing the cytotoxicity of B2RAs and chemotherapeutic agents (carmustine, doxorubicin, carboplatin, temozolomide and paclitaxel), cells were grown to confluency in multi-well plates and exposed to starving media (DMEM without FBS) for 24h before beginning of the antagonist treatment. Cells were then incubated with MTT and treated exactly as described above. Cell viability was expressed as a percentage of optical density (OD) values obtained upon treatment relative to control.

[5] = target: T2, B2R endogenously expressed in the human de-endothelized umbilical veins (Homo sapiens, UniProt P30411); details: antagonist, reduction of BK submaximal contraction; means ± s.e.m.; ref [34]; read-out: Bioassay hUV IC50; cited from earlier work
T2 construct: B2R endogenously expressed in the human de-endothelized umbilical veins (hUV); from tissue; host or cells: human umbilical vein, de-endothelized
T2 sequence (P30411 1-391): T1 sequence (P30411 1-391)

MDA-MB-231 cells [6] = test: MTT proliferation assay; format: cell-based, human; details: B2R shRNA knockdown MDA-MB-231 cells vs scrambled shRNA
Procedure: as §1

[7] = 24h treatment, whole-cell lysates

CC(=O)Nc1ccc(/C=C/C(=O)NCC(=O)N(C)c2ccc(Cl)c(COc3cccc4ccc(C)nc34)c2Cl)cn1 [FR 173657]
combination index (CI) (MDA-MB-231 cells [1]; combination with doxorubicin): below 1 | combination index (CI) (MDA-MB-231 cells [1]; combination with paclitaxel): below 1 | IC50 (human B2R): 37 ± 1.6 nM | colony formation (antagonist effect) (MDA-MB-231 cells [2]): concentration-responsive clonal repression | expression of BAD and p27Kip1 (MDA-MB-231 cells [3]; [7]): increased expression | levels of MAPK and cyclin A (MDA-MB-231 cells [3]; [7]): decreased the levels of MAPK and cyclin A | levels of anti-apoptotic protein XIAP (MDA-MB-231 cells [3]; [7]): appeared to reduce the levels | phosphorylation of p38 (MDA-MB-231 cells [3]; over time): significantly increased the phosphorylation | IC50 (MDA-MB-231 cells [4]): 20000 ± 1000 nM | IC50 [5]: 6 ± 0.8 nM | cytostatic activity after B2R downregulation (MDA-MB-231 cells [6]): significantly attenuated
